The values below come from PubChem BioAssay AID493102 (Broad Institute, 2011).

A word on the AC50: it is the concentration at which the activity in the assay is half-maximal.

Each structure is given as a SMILES string.

The subject of this assay is SK-MEL-5 TRPM1-promoter luciferase reporter, 24 h. Nature of the assay: TRPM1 promoter luciferase signal decrease, dose response, MITF inhibitor project, cell-based, SK-MEL-5, cherry-picked, set 4 (AID 493102).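 Further: actives lower the luciferase signal so the potency reflects inhibition of reporter expression.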
Consider `O=C(NC1=NCCS1)C1COc2ccccc2O1` (centres undefined), for which the AC50 was 1.7 µM.
The same measure for `CC(C)C(=O)N1CCN(c2ccc(NC(=O)c3ccc([N+](=O)[O-])o3)cc2Cl)CC1`: 7.05 µM.
With `O=C(Cn1ncc(Cl)c(Cl)c1=O)NC1CCCCC1` the figure was 6.82 µM.
Turning to `Cc1ccccc1NC(=O)Cc1nc(COC(=O)c2ccc(S(C)(=O)=O)c([N+](=O)[O-])c2)cs1`, the AC50 was 12.8 µM.
Take `COC(=O)[C@@H]1C[C@]2(OC(=O)c3ccccc3)C=CC(=O)C[C@@H]2N1C(=O)OCc1ccccc1`: the AC50 is 14 µM.
For `COc1cc(OC)cc(-c2oc(=O)c3cc(OC)c(OC)cc3c2C(F)(F)F)c1`, the concentration at half-maximal activity (AC50) is 12.8 µM.
The same measure for `COC1=C(Nc2ccc(O)cc2)C(=O)c2ccccc2C1=O`: 5.14 µM.
In the case of `O=C(O)c1cc(N/N=C/C(Cl)=C/c2ccccc2)ccc1Cl`, the AC50 was 10.4 µM.
For the molecule `O=C(N/N=C/c1ccc([N+](=O)[O-])s1)C(O)c1ccccc1` (centres undefined), the AC50 was 4.48 µM.
As to `FC(F)(F)c1cc(CCN2CCNC[C@@H]2Cc2ccccc2)cc(C(F)(F)F)c1`, the concentration at half-maximal activity (AC50) was 12.3 µM.
Regarding `CCC(=O)OCCNc1cc(Sc2nccn2C)c2nonc2c1[N+](=O)[O-]`, the concentration at half-maximal activity (AC50) was 7.16 µM.
With `Cc1cc(C)nc(S/C=C/C(=O)c2ccccc2F)n1`, the AC50 is 5.38 µM.
On to `O=C(N/N=C\c1ccc([N+](=O)[O-])o1)C1COc2ccccc2O1` (centres undefined), for which the half-maximal activity concentration (AC50) was 7.21 µM.
The same measure for `O=C(/C=C/Nc1ccccc1Br)c1ccccn1`: 0.899 µM; for `O=C(Nc1ccc(F)cc1)c1nc(S(=O)(=O)Cc2ccccc2)ncc1Cl`: 9.45 µM; for `CCN1c2ccccc2NC2N=C(OC)C(c3ccccc3)C21` (centres undefined): 7.52 µM.
In the case of `N#Cc1cc2c(nc1SC1CC(=O)N(c3ccccc3)C1=O)CCC2` (centres undefined), the half-maximal activity concentration (AC50) is 1.78 µM.
Turning to `COc1ccc2c(C)nc(Nc3nc(-c4ccccc4)cc(=O)[nH]3)nc2c1`, the AC50 is 2.91 µM.
With `O=C(c1ccccc1)C(CN1CCCC1)c1ccccc1` (centres undefined) the figure was 5.33 µM; with `CCCCn1c(=N)n(CCOc2ccc(C)cc2)c2ccccc21`, 11.3 µM; with `O=C(Nc1ccc2nc3n(c(=O)c2c1)CCCC3)c1cc([N+](=O)[O-])ccc1F`, 11.5 µM.
In the case of `Cc1ccccc1-n1ncc2c([N+](=O)[O-])cc([N+](=O)[O-])cc21`, the AC50 is 8.7 µM.
The same measure for `COc1cc(SC)ccc1C(=O)Nc1ncc(C)s1`: 3.65 µM; for `O=C(O)c1ccccc1C(=O)Nc1ccc(Oc2cccc3ccccc23)cc1`: 18.8 µM; for `O=C(N/N=C\c1ccc([N+](=O)[O-])s1)c1cncc(Br)c1`: 4.34 µM.
On to `Cc1ccc(-c2c[n+](Cc3ccc(Cl)c(Cl)c3)c3n2CCC3)cc1`, for which the AC50 was 3.73 µM.
Regarding `C=CCSC(=S)NC1CCS(=O)(=O)C1` (centres undefined), the AC50 is 20.7 µM.
For `COc1ccc(/C=C2\SC(=S)N(CCCC(=O)NNC(=O)c3ccccc3O)C2=O)cc1`, the AC50 is 1.38 µM.
As for `CN1C(=O)/C(=C/c2cccn2-c2ccc3ccccc3c2)C(=O)NC1=S`, the AC50 was 9.42 µM.
With `CCc1ccccc1NC(=O)CN(C)C(=O)Cn1ncc(Cl)c(Cl)c1=O` the figure was 11 µM; with `Cn1cccc1C(=O)NC(=O)COC(=O)c1ccc(S(C)(=O)=O)c([N+](=O)[O-])c1`, 9.23 µM; with `CCOC(=O)c1nnn(-c2ccc([N+](=O)[O-])cc2[N+](=O)[O-])c1C`, 8.85 µM.
`NNC(=O)c1cc2ccccc2cc1O`: the AC50 is 24 µM.
As for `CN(C)CCCNC(=O)/C(=C\c1ccc(-c2ccc(Br)cc2)o1)NC(=O)c1ccccc1`, the concentration at half-maximal activity (AC50) was 7.51 µM.
Regarding `O=C(CNC(=O)c1cccc(F)c1)N/N=C/c1ccc([N+](=O)[O-])s1`, the AC50 is 7.45 µM.
Take `CCOc1ccccc1NC(=O)C(=O)N/N=C/c1cc(Br)ccc1O`: the AC50 was 3.34 µM.
Consider `O=c1c2ccccc2cnn1CCOc1ccccc1`, for which the AC50 is 7.2 µM.
As to `N#C/C(=C\c1ccc(OCc2ccc(C(=O)O)cc2)cc1)C(=O)N1CCOCC1`, the AC50 is 1.19 µM.
In the case of `Cn1c(SC2=CS(=O)(=O)c3ccccc32)nc2ccccc21`, the AC50 is 6.72 µM.
For `COc1ccccc1OCCN1CSC(=S)N(C)C1`, the AC50 is 12.2 µM.
As for `CC1CC(C)CN(C(=O)/C=C/c2ccc([N+](=O)[O-])s2)C1` (centres undefined), the AC50 was 11.9 µM.
With `O=C(Nc1ccccc1N1CCOCC1)c1ccc([N+](=O)[O-])o1`, the AC50 is 11.9 µM.
Regarding `O=[N+]([O-])c1ccc(S(=O)(=O)CC(CN2CCCCC2)N2CCCCC2)cc1` (centres undefined), the AC50 is 4.88 µM.
In the case of `Cc1ccc(C#CC[N+]2(CC#Cc3ccc(C)cc3)CCCCC2)cc1`, the AC50 is 3.95 µM.
The same measure for `COc1cc2c(c(OC)c1OC)-c1ccc(N(C)CC(OC)OC)c(=O)cc1[C@@H](NC(C)=O)CC2`: 2.04 µM.
As for `O=C(/C=C/c1ccc([N+](=O)[O-])s1)N1CCCCC1`, the AC50 was 4.16 µM.
The same measure for `COc1ccccc1NS(=O)(=O)c1cc(NC(=O)c2ccc(Cl)nc2)ccc1Cl`: 11.3 µM; for `CCOC(=O)N1C(=O)[C@@](CC)(c2ccccc2)N1C(=O)OCC`: 12.5 µM.
Regarding `C=C1C(=O)C=C[C@]2(C)C[C@@H]3OC(=O)[C@](C)(O)[C@H]3C[C@@H]12`, the AC50 is 10.3 µM.
With `Cc1ccn2c(Nc3ccccc3)c(-c3ccccn3)nc2c1` the figure was 9.31 µM.
Take `Cn1nnnc1Sc1ncnc2scc(-c3ccc(C#N)cc3)c12`: the AC50 was 4.98 µM.
Take `O=C(CCl)N(c1ccccc1)c1c[nH]c2ccccc12`: the AC50 is 5.08 µM.
As for `CC(C)=NOc1cc(NC(=O)CCl)cc([N+](=O)[O-])c1`, the AC50 was 6.18 µM.
On to `Cc1c(C#N)c(NC(=O)CCl)n(Cc2ccc(F)cc2)c1C`, for which the half-maximal activity concentration (AC50) is 7.16 µM.
With `CCN1CCN(C2=C(NS(=O)(=O)c3ccc(Br)cc3)C(=O)c3ccccc3C2=O)CC1`, the AC50 is 5.71 µM.
Turning to `CCCCn1c(=N)n(CC(=O)c2ccc(Br)s2)c2ccccc21`, the AC50 is 7.45 µM.
Turning to `Cc1ccc(NC(=O)c2cc(N3C(=O)C=CC3=O)ccc2N2CCOCC2)cc1`, the AC50 is 11.6 µM.
With `O=C1C=C(N(CCO)Cc2ccccc2)c2ccccc2C1=O`, the AC50 is 4.78 µM.
Regarding `COC1=C(c2ccccc2)C(=O)c2ccccc2C1=O`, the AC50 is 9.05 µM.
With `Cc1cc(C)cc(NS(=O)(=O)c2ccc3c(c2)c(=O)n(C)c(=O)n3C)c1` the figure was 4.67 µM; with `CN(Cc1ccccc1)C1=CC(=[N+]2CCCCC2)CC(C)(C)C1`, 2.46 µM.
In the case of `C=CCn1c(C)cc(C(=O)CN2C(=O)c3ccccc3S2(=O)=O)c1C`, the AC50 was 0.666 µM.
Consider `O=C(CCl)N(Cc1cc(=O)[nH]c2ccccc12)c1ccccc1`, for which the AC50 is 5.42 µM.
On to `O=C(O)c1cc2ccccc2c(N=Nc2cccnc2)c1O`, for which the half-maximal activity concentration (AC50) is 11.4 µM.
The same measure for `Cc1ccc(NC(=O)C2CCN(S(=O)(=O)c3c(C)noc3/C=C/c3ccco3)CC2)nc1`: 5.56 µM; for `CC1CCCC(NCC(O)COC(c2ccc(F)cc2)c2ccc(F)cc2)C1C` (centres undefined): 10.8 µM.
As to `O=C(O)c1cccc(N/N=C/c2cccs2)c1`, the AC50 is 1.51 µM.
For `Cc1ccccc1C(=O)N/N=C/c1ccc([N+](=O)[O-])s1`, the AC50 was 1.88 µM.
Regarding `O=C(CNc1ccc2ccccc2c1)N/N=C/c1ccc([N+](=O)[O-])o1`, the AC50 is 4.95 µM.
On to `Cc1ccc(C(=O)C[n+]2cc(-c3ccc(C)cc3)n3c2CCCCC3)cc1`, for which the AC50 is 3.63 µM.
Regarding `CCS(=O)(=O)c1ccc(N=Nc2ccc(O)c3ncccc23)c(OC)c1`, the AC50 is 9.23 µM.
For the molecule `C=CCN=C1NN=C(c2ccc3c(c2)OCCO3)CS1`, the concentration at half-maximal activity (AC50) was 3.37 µM.
The same measure for `COc1ccc(Br)cc1/C=C/C(=O)c1ccc(NC(C)=O)cc1`: 4.63 µM; for `Cc1cc(C)cc(N2C(=O)NC(=O)/C(=C\C=C\c3ccco3)C2=O)c1`: 4.88 µM; for `Cc1[nH]c2ccccc2c1C(=O)CCl`: 6.78 µM.
The same measure for `CCC(=O)OCCNc1cc(Sc2nc3ccccc3[nH]2)c2nonc2c1[N+](=O)[O-]`: 9.14 µM; for `COc1ccc(C(=O)/C=C/C(=O)N(CC(=O)NC2CCCCC2)Cc2ccccc2)c(O)c1`: 5.24 µM.
On to `Cc1ccc(-c2cn(-c3ccc(SC(F)F)cc3)c3[n+]2CCC3)cc1`, for which the AC50 is 1.64 µM.
With `O=C(CCl)N1CCN(S(=O)(=O)c2ccc3c(c2)CCC3)CC1` the figure was 20.8 µM.
On to `O=C(O)c1ccc(Nc2nc3c(s2)CCCC3)cc1`, for which the AC50 is 6.49 µM.
With `Cc1ccc(NC(=O)CCC(=O)N/N=C/c2ccc([N+](=O)[O-])o2)cc1C` the figure was 6.25 µM; with `O=C(Cn1ncc(Cl)c(Cl)c1=O)N1CCN(Cc2ccccc2)CC1`, 10.9 µM; with `CCn1c(C)cc(C(=O)CN2C(=O)c3ccccc3S2(=O)=O)c1C`, 1.99 µM.
For `O=C(CCl)Nc1cccc(S(=O)(=O)N2CCCCCC2)c1`, the AC50 was 11.8 µM.
With `C=CCn1c(C)cc(C(=O)Cn2ncc(Cl)c(Cl)c2=O)c1C` the figure was 9.97 µM.
With `O=C(N/N=C/c1ccc([N+](=O)[O-])o1)c1sc2ccccc2c1Cl` the figure was 4.61 µM.
With `CC(C)c1ccc(/C=C2\SC(=S)N(CCC(=O)N3CCCCC3CCO)C2=O)cc1` (centres undefined), the AC50 was 7.43 µM.
Consider `Cn1cc([N+](=O)[O-])c(C(=O)Nc2cc(Oc3ccccc3)cc([N+](=O)[O-])c2)n1`, for which the AC50 was 12.4 µM.
For the molecule `COc1ccc(C(NC(C)=O)c2ccc3cccnc3c2O)c(OC)c1` (centres undefined), the AC50 is 5.15 µM.
With `CC1(C)CC(NC(=O)c2ccc(Cl)c(S(=O)(=O)N(Cc3ccccc3)c3ccccc3)c2)CC(C)(C)N1`, the AC50 was 10.3 µM.
With `O=C(/C=C/c1ccccc1)Nc1cccc(C(=O)O)c1`, the AC50 is 1.52 µM.
Regarding `Cn1nc([N+](=O)[O-])nc1S(C)(=O)=O`, the AC50 is 9.2 µM.
As for `C=CC[n+]1c(-c2ccc(C)cc2)csc1Nc1ccc(NC(C)=O)cc1`, the AC50 is 1.57 µM.
Regarding `COc1ccc(C(=O)C(CN2CCOCC2)c2ccccc2)cc1` (centres undefined), the AC50 was 7.29 µM.
In the case of `O=C(/C=C/c1ccc(Cl)c([N+](=O)[O-])c1)c1ccc(O)cc1`, the AC50 was 17.4 µM.
Take `Cc1cc(Br)ccc1NC(=O)CNC(=O)Cn1ncc(Cl)c(Cl)c1=O`: the AC50 was 7.47 µM.
The same measure for `NCCN1C(=O)S/C(=C\c2ccc3c(c2)OCO3)C1=O`: 22.3 µM.
In the case of `COc1ccc(C(=O)/C=C/C(=O)N(CC(=O)NC2CCCCC2)Cc2cccs2)c(O)c1`, the half-maximal activity concentration (AC50) is 5.53 µM.
Take `Cc1[nH]n(-c2ccccc2)c(=O)c1N=Nc1cccc(C(=O)O)c1`: the AC50 is 8.07 µM.
